Values belong to the molecule of their own block, whether it stands above or below them.
Columns and labels:
Tau 4R2n 241-340 (TP-99) = biological target: T1, Tau 4R2n 241-340 (TP-99) (Homo sapiens, UniProt P10636); test: TP-99 peptide digest HPLC assay with added zinc chloride; type: biochemical; details: 100 μM zinc chloride, 44 hr at 37° C.
T1 construct: initiating methionine (N); made in house; host or cells: E. coli BL21 (DE3) Gold
Method: As in FIG. 7, cleavage of the peptide substrate for tau protease Tau 4R2N (amino acids 335-353) was used to monitor activity using reverse-phase HPLC. […] The large peak in the lower trace indicates intact peptide which is greatly diminished in the upper trace and replaced with two smaller peaks F1 and F2 that represent fragments generated by TP-99. […] The asterisk indicates an artifact peak that is derived from the incubation tube. Ten microgram of Tau peptide 335-353 (OP-001) was incubated without TP-99, with 25 μL, TP-99 oligomer ladder, or with additional 100 μM zinc chloride, 44 hr at 37° C. in 30 μL buffer (25 mM Tris-HCl pH 7.4). Samples were analyzed by reverse phase HPLC (SystemGold® 32Karat™ LC-CE System, Beckman Coulter, Inc., (Indianapolis, Ind.)) using a linear gradient of acetonitrile in 0.1% TFA 0-60% acetonitrile on an analytical C18 column (12.5 cm×2.1 mm, 5 μm, (Supelco);

tau 4R2N trimer protease = biological target: T2, tau 4R2N trimer protease (Homo sapiens, UniProt P10636); test: Peptide assay (tau peptide 335-353, reverse-phase HPLC) used to screen serine protease inhibitors; type: biochemical; design: inhibition of cleavage of the peptide (FIG. 14D) / inhibition of cleavage of the peptide (FIG. 14F): dose or concentration left out as unconfirmed; details: 1 hr at room temperature before peptide substrate
T2 construct: Stabilization buffer enables production of full length monomer, dimer and trimer for tau protease; made in house; host or cells: E. coli BL21 (DE3) Gold
T2 sequence (P10636 1-441 isoform P10636-8): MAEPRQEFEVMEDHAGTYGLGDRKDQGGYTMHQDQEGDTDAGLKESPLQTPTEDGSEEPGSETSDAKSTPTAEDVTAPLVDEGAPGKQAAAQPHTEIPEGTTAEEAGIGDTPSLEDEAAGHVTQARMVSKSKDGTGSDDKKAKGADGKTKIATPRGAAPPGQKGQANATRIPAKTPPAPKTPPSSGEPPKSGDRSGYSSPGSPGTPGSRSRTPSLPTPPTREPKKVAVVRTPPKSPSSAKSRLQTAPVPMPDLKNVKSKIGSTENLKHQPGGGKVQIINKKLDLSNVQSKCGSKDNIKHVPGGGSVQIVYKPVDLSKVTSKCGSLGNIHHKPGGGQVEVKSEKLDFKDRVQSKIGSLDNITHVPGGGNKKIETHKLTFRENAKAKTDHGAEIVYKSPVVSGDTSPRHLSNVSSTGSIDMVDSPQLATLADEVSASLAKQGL
From the text: N-terminal sequencing of fragments using mass spectrometry identified autoproteolytic cut sites. In particular, cutting at the Lys340-Ser341 (340KS341) cut site occurred readily. Therefore, a 19-amino acid peptide corresponding to amino acids 335G to 353L of tau protein was synthesized that contained the KS cut site (340KS341). The reaction was monitored by reverse-phase high-pressure liquid chromatography (HPLC). […] An asterisk marks a non-specific contaminant that was used as a marker. […] 10 μg of tau peptide 335-353 ([…]) (SEQ ID NO:19) was custom synthesized by Genscript (Piscataway, N.J., USA) and 1 mg was dissolved in 1 mL of buffer (25 mM Tris-HCl pH 7.4). […] of peptide was incubated with 11 μg of tau trimer protease in 30 μL buffer 20 hr at 37° C. and analyzed by HPLC [SystemGold® 32Karat™ LC-CE System, Beckman Coulter, Inc., (Indianapolis, Ind.)] using a linear gradient of acetonitrile in 0.1% TFA 0-60% acetonitrile on an analytical C18 column (12.5 cm×2.1 mm, 5 μm, (Supelco, Bellefonte, Pa., USA). 30 μg of peptide was incubated without tau protease as a negative control and analyzed with the same method;
The peptide assay for tau 4R2N trimer activity described in FIG. 5 was used to screen a series of serine protease inhibitors. 1 mM AEBSF was incubated with tau 4R2N trimer for 1 hr at room temperature before addition of the peptide substrate. […] The asterisk indicates an artifactual peak unrelated to the peptide;

tau 4R2N trimer [1] = biological target: T3, tau 4R2N trimer (Homo sapiens, UniProt P10636); test: Tau 4R2N trimer incubated overnight with protease inhibitors, fragmentation read by SDS-PAGE; type: biochemical; details: overnight at 37° C., inhibitors at low and high concentrations; chymostatin 10 and 100 μM
T3 construct: Stabilization buffer enables production of full length monomer, dimer and trimer for tau protease; made in house; host or cells: E. coli BL21 (DE3) Gold
T3 sequence (P10636 1-441 isoform P10636-8): as above
Method: Tau 4R2N trimer was incubated overnight at 37° C. with and without serine-specific protease inhibitors (Sigma Aldrich, St. Louis, Mo.). The incubation volumes were 3.45 microliter at a final concentration of 0.145 mg/mL tau 4R2N trimer.
Tau 4R2N trimer was incubated overnight at 37° C. with and without serine-specific protease inhibitors at low and high concentrations.
Tau trimer protease was incubated with and without protease inhibitor cocktail overnight containing serine protease, amino-peptidase, cysteine protease and aspatic protease inhibitors.
For each sample, 0.45 μg of tau 4R2N trimer was incubated at 0.2 mg/mL overnight at 37° C. in the presence of various freshly prepared protease inhibitors. Non-incubated control was kept on ice overnight at 4° C. Next day, 2× sodium dodecyl sulfate sample buffer with reductant was added to each sample and loaded onto a 4-20% gradient Tris-HCl Criterion Gel (Bio-Rad).
Protease inhibitors targeted include serine proteases, amino-peptidases, cysteine proteases, metallo-proteases, and aspartic proteases.

Tau 4R2N [2] = biological target: T4, Tau 4R2N (Homo sapiens, UniProt P10636); test: NEM treatment of tau 4R2N monomer, incubation at 37° C., non-reducing SDS-PAGE; type: biochemical; details: 1 mM NEM for 2 hr
T4 construct: Stabilization buffer enables production of full length monomer, dimer and trimer for tau protease; made in house; host or cells: E. coli BL21 (DE3) Gold
T4 sequence (P10636 1-441 isoform P10636-8): as above
Method: FIG. 2 illustrates the formation of disulfide mediated tau oligomers preceded truncation and higher order aggregate formation. Tau 4R2N oligomers were purified by continuous-elution electrophoresis and monomer was further purified by pooling and buffer exchanging using spin columns with a molecular weight cut-off of 7000 Da into 25 mM Tris-HCl pH 7.4. A small amount of the monomer was treated with freshly-prepared NEM at a final concentration of 1 mM for 2 hr at ambient temperature. For incubations, monomer treated and untreated with NEM was allowed to incubate at 37° C. over the weekend (approximately 50 hrs), followed by separation on 4-20% sodium dodecyl sulfate (SDS)-polyacrylamide gel electrophoresis (PAGE) (SDS-PAGE) Tris-HCl gel (Bio-Rad Catalogue #345-0033 Hercules, Calif., USA) without reductant. Tau 4R2N—Disulfide-mediated oligomer formation preceded truncation, and truncation preceded higher-order aggregation. Aggregate formation was time dependent.

tau 4R2N trimer [3] = biological target: T3, tau 4R2N trimer; test: SDS titration for tau protease stabilization buffer; type: biochemical
Method: (§1) Purified recombinant human tau 4R2N was prepared as described in the flow chart. Monomer, dimer and trimer species were purified preparative electrophoresis from a tau 4R2N preparation that had formed oligomers. The electrophoresis buffer contained 0.1% SDS which inhibited the proteolytic activity. Fractions containing the tau species were buffer exchanged into 25 mM Tris-HCl pH 7.4 using and Amicon ultrafiltration device (Merck Millipore, Billerica, Mass.), which led to restoration of tau autoproteolytic activity. Protein concentrations of the preparations were determined using the BCA kit (ThemoFisher Scientific). Samples were run on a pre-cast 4-20% polyacrylamide Tris-HCl gel (BioRad, Hercules, Calif.) without using reductant in order to visualize the disulfide mediated oligomers. The gel was stained with GelCodeBlue Safe (ThermoFisher Scientific, Rockford, Ill.). Lane 1: 5.2 μg of tau 4R2N oligomer standard; Lane 2: 2 microliter of monomer fraction before buffer exchange; Lane 3: 0.5 μg monomer after buffer exchange; Lane 4: […] of dimer fraction before buffer exchange; Lane 5: 0.5 μg dimer after buffer exchange; Lane 6: 20 μL trimer fraction before buffer exchange; Lane 7: 0.5 μg trimer after buffer exchange.
This example describes the development and characterization of a stabilization buffer for preserving the activity of tau protease. […]

Tau 4R2N [4] = biological target: T4, Tau 4R2N; test: Autoproteolytic activity of purified tau monomer, dimer and trimer (SDS-PAGE); type: biochemical; details: for degradation in contamination control study (Example 3): 0.35 μg, overnight at 37° C., equal sample volumes from purification; for autoproteolytic activity (Example 1): after buffer exchange into 25 mM Tris-HCl pH 7.4, incubation at 37° C.
Method: This example describes the identification of the autoproteolytic activity of tau oligomers.
as §1
Tau 4R2N undergoes autoproteolytic cleavage (self-cleavage) when it forms disulfide-mediated oligomers upon incubation. Tau autoproteolyic activity co-purified with the dimer and trimer species. The amount of autoproteolytic activity was greatest with trimer which fragmented to the extent where no full size trimer remained after incubation. […] It was also shown that Tau autoproteolytic activity co-purified with dimer and trimer species. […] Full-length trimer digested completely into smaller fragments, and upon incubation, monomer formed an oligomeric ladder that produced a low level of autoproteolytic activity.
(§2) Monomer, Dimer, and Trimer of Tau 441 were purified under non-reducing conditions using continuous-elution electrophoresis. Fractions of each oligomer sample were pooled and buffer exchanged into stabilization buffer using an Amicon spin concentrator with a molecular weight cut-off of 30,000 daltons. 0.35 μg of each sample was incubated overnight at 37° C. while non-incubated control was kept on ice at 4° C. Next day, 2×SDS sample buffer without reductant was added to each sample and loaded onto a 4-20% gradient Tris-HCl Criterion Gel (Bio-Rad, Hercules, Calif.).
as §2, with “This example presents results from a contamination control study of tau protease. Monomer,” for “Monomer,”, “2× sodium dodecyl sulfate” for “2×SDS”
Lane 1—tau oligomer ladder standard; Lane 2—empty; Lane 3—purified monomer no incubation (fraction from purification plate); Lane 4—purified monomer without incubation; Lane 5—purified monomer with incubation; Lane 6—purified dimer without incubation; Lane 7—purified dimer with incubation; Lane 8—purified trimer without incubation; purified trimer with incubation overnight at 37° C. Lanes 3-9 were treated with sample buffer containing β-mercaptoethanol (BME).

Aβ = details: clinical endpoint in Phase III; cited from earlier work
Tau 4R2N oligomer ladder = biological target: T5, Tau 4R2N oligomer ladder (Homo sapiens, UniProt P10636); test: FP-TAMRA serine hydrolase probe labeling of oligomerized tau 4R2N; type: biochemical; details: pre-treated with 0, 0.1, 1.0 or 10.0 mM AEBSF for 1 hr; 5 micromolar FP-TAMRA, 4 hrs
T5 construct: Stabilization buffer enables production of full length monomer, dimer and trimer for tau protease; made in house; host or cells: E. coli BL21 (DE3) Gold
T5 sequence (P10636 1-441 isoform P10636-8): as above
From the text: Tau 4R2N oligomer ladder was labeled with fluorophosphonate (FP) linked to a fluorescent TAMRA tag (ThermoFisher Scientific), a probe that is specific for active site serines in serine proteases. FP probes specifically label the serines of enzymatically-active serine hydrolases. The serine protease-specific inhibitor, AEBSF, was used in a dose-response study to determine whether tau was being specifically labeled with FP. […] Samples were run without reductant or with reductant as indicated. For labeling, 10 μg of tau 4R2N was labeled with 5 micromolar FP-TAMRA in 10 μL buffer (25 mM Tris-HCl pH 7.4, 150 mM NaCl, 0.5 mM EDTA, 0.1% NP-40, 5% glycerol) for 4 hrs at room temperature in the dark. Samples were pre-treated with 0, 0.1, 1.0, or 10.0 mM AEBSF for 1 hr at room temperature to block the active-site serine before the addition of the FP-TAMRA probe. Samples were divided in half and run with sample buffer with or without reductant as indicated;
4-(2-Aminoethyl)benzenesulfonyl fluoride hydrochloride (AEBSF) was prepared fresh in anhydrous DMSO. (Sigma Chemical Co.) A8456-≥97%, Molecular Weight: 239.69; 9 mg AEBSF/187.2 μL DMSO=200 mM. Serine hydrolase FP probes were equilibrated to room temperature in pouch with desiccant. Serine hydrolase FP probe was dissolved in 100 μL of DMSO to make a 0.1 mM stock solution. Samples were aliquotted in 5-μL/tubes and store in −80° C. freezer. […]

T1 sequence (P10636 with tags, fused parts or gaps): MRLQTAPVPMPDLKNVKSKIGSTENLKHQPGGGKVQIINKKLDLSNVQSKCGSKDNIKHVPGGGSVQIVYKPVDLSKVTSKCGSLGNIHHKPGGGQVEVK

Molecule: [Cl-].[Cl-].[Zn+2] [zinc chloride]
- activity of TP-99 on tau peptide 335-353 (Tau 4R2n 241-340 (TP-99)): increased the activity

Molecule: CC(C)C[C@H](NC(=O)[C@@H](NC(=O)N[C@@H](Cc1ccccc1)C(=O)O)[C@@H]1CCN=C(N)N1)C(=O)N[C@H](C=O)Cc1ccccc1 [Chymostatin]
- inhibition of cleavage of the peptide (FIG. 14D) (tau 4R2N trimer protease; chymostatin): strongly inhibited
- inhibitory effect on tau 4R2N trimer, serine protease inhibitor panel (FIG. 12) (tau 4R2N trimer [1]): greatest inhibitory effect

Molecule: CCN1C(=O)C=CC1=O [NEM, N-ethylmaleimide]
- disulfide-mediated oligomer formation (Tau 4R2N [2]; then about 50 hrs at 37° C.): irreversibly inhibited
- autoproteolytic activity (Tau 4R2N [2]; then incubation at 37° C.): loss of autoproteolytic activity
- higher order aggregate formation (Tau 4R2N [2]; then incubation at 37° C.): inhibition of higher order aggregate formation

Molecule: CCCCCCCCCCCCOS(=O)(=O)[O-].[Na+] [SDS, sodium dodecyl sulfate]
- minimal inhibitory concentration for the enzymatic activity (tau 4R2N trimer [3]; 0.3 μg tau 4R2N trimer, overnight at 37° C., 50 mM TrisHCl pH 7.4): 0.002%
- proteolytic activity in electrophoresis buffer (tau 4R2N trimer [3]; 0.1% SDS): inhibited

- degradation in contamination control study (Example 3) (Tau 4R2N [4]): minimal cleavage
- autoproteolytic activity (Example 1) (Tau 4R2N [4]): minor activity
Molecule: tau 4R2N monomer: purified monomer species of recombinant human tau 4R2N

Molecule: NCCCS(=O)(=O)O [Tramiprosate]
- Status (Aβ): Failed to meet

Molecule: gabexate mesylate
- inhibition of cleavage of the peptide (FIG. 14F) (tau 4R2N trimer protease; gabexate mesylate): did not significantly inhibit

Molecule: C[C@@H](C(=O)O)c1ccc(-c2ccccc2)c(F)c1 [R-flurbiprofen]
- Status (Aβ): Failed to meet

Molecule: Cl.NCCc1ccc(S(=O)(=O)F)cc1 [AEBSF, 4-(2-Aminoethyl)benzenesulfonyl fluoride hydrochloride]
- FP-TAMRA labeling of tau 4R2N (Tau 4R2N oligomer ladder): inhibited in a dose-dependent manner
- inhibition of tau 4R2N trimer protease activity, peptide assay (FIG. 14A) (tau 4R2N trimer protease; 1 mM AEBSF): inhibited

- degradation in contamination control study (Example 3) (Tau 4R2N [4]): minimal cleavage
- autoproteolytic activity (Example 1) (Tau 4R2N [4]): showed autoproteolytic activity
Molecule: tau 4R2N dimer: purified disulfide-mediated dimer species of recombinant human tau 4R2N

Molecule: CC(C)[C@H](O)C(=O)N[C@@H](C)C(=O)N[C@@H]1C(=O)N(C)CCc2ccccc21 [Semagacestat]
- Status (Aβ): Failed to meet

— patent US10597649B2, “Tau protease compositions and methods of use” (Oligomerix, Inc., priority 2011, dated 2020)
